# Measurements published in PMC7656518 (ACS chemical biology, 2018).
# Positions of bridges follow the written chain, without caps; N, C: chain ends. Residues, ends and D or L forms follow the SMILES beside them.
# What was measured:
# hCT(a) receptor = biological target: T1, hCT(a) receptor (Homo sapiens, UniProt P30988); assay: cAMP production; assay type: cell-based
# T1 sequence (P30988 25-474): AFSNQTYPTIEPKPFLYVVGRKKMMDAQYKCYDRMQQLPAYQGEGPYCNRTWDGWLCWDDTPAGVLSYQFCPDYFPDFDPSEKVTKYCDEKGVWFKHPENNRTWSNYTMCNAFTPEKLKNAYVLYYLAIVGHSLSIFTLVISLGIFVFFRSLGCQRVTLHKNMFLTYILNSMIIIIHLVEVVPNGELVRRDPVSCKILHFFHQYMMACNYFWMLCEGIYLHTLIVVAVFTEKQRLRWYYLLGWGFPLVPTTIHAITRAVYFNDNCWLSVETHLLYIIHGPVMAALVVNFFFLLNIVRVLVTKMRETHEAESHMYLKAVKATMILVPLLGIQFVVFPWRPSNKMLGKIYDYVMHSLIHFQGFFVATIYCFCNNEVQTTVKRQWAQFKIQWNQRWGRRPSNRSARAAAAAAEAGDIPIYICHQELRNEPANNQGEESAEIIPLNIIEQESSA
# hAMY1(a) receptor = hAMY1(a) receptor (Homo sapiens, UniProt O60894+P30988); assay: cAMP production; assay type: cell-based
# Sequence of hAMY1(a) receptor (O60894 27-148 partner, one chain of several): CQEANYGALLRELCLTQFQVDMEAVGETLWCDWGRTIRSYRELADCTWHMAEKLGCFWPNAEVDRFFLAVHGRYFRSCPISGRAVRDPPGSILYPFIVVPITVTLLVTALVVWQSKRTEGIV
# hAMY2(a) receptor = hAMY2(a) receptor (Homo sapiens, UniProt O60895+P30988); assay: cAMP production; assay type: cell-based
# Sequence of hAMY2(a) receptor (O60895 43-175 partner, one chain of several): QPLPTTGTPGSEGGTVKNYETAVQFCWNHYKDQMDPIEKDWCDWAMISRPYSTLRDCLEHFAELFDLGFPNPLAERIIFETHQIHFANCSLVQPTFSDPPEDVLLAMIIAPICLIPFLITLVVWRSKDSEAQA
# hAMY3(a) receptor = biological target: T2, hAMY3(a) receptor (Homo sapiens, UniProt O60896+P30988); assay: cAMP production; assay type: cell-based
# T2 sequence (P30988 25-474): T1 sequence (P30988 25-474)
# T2 sequence (O60896 24-148 partner): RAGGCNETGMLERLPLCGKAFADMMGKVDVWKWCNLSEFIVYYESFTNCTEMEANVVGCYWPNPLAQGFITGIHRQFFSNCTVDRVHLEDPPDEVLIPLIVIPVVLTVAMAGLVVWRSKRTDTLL
# [1] = test system: hCT(a), hAMY1(a), hAMY2(a), hAMY3(a) receptors; assay: cAMP production, overall statement for the four amylin-responsive receptors; assay type: cell-based, human; settings: stimulation of cAMP production at hCT(a)
# [2] = Thioflavin-T fluorescence amyloid formation kinetics and TEM in PBS; assay type: physicochemical; settings: PBS (10 mM phosphate 140 mM KCl) pH 7.4
# [3] = Amyloid formation in presence of anionic large unilamellar vesicles; assay type: physicochemical; settings: LUV's 25% POPS / 75% POPC, final concentration 400 μM
# rat INS-1/832-13 β-cells = assay: Alamar Blue β-cell viability; settings: 30 μM peptide
# [4] = Thioflavin-T fluorescence amyloid formation kinetics and TEM in Tris buffer
smiles,measurement,setting,value
CC[C@H](C)[C@H](NC(=O)[C@H](C)NC(=O)CNC(=O)[C@H](CC(C)C)NC(=O)[C@H](CCCCN)NC(=O)[C@H](CC(N)=O)NC(=O)[C@H](CO)NC(=O)[C@H](CO)NC(=O)[C@@H]1CCCN1C(=O)[C@H](C)NC(=O)[C@H](CC(C)C)NC(=O)[C@H](Cc1ccccc1)NC(=O)[C@H](CC(N)=O)NC(=O)[C@H](C)NC(=O)[C@H](CC(C)C)NC(=O)[C@H](CCCNC(=N)N)NC(=O)[C@H](CCC(N)=O)NC(=O)[C@@H](NC(=O)[C@H](CCC(=O)O)NC(=O)[C@@H]1CSSC[C@H](NC(=O)[C@@H](N)CCCCN)C(=O)NCC(=O)N[C@@H]([C@@H](C)O)C(=O)N[C@@H](C)C(=O)N[C@@H]([C@@H](C)O)C(=O)N1)[C@@H](C)O)C(=O)N[C@@H](Cc1ccccc1)C(=O)N[C@@H](CO)C(=O)N1CCC[C@H]1C(=O)N[C@H](C(=O)N[C@@H](CCCCN)C(=O)N[C@@H](CCSC)C(=O)NCC(=O)N[C@@H](CO)C(=O)N[C@@H](CC(N)=O)C(=O)N[C@H](C(=O)N[C@@H](Cc1ccc(O)cc1)C(N)=O)[C@@H](C)O)[C@@H](C)O [b-amylin] (H-KCGTATCETQRLANFLAPSSNKLGAIFSPTKMGSNTY-NH2; disulfide 2-7; N-terminus assumed),Emax,hCT(a) receptor; COS-7,62.9 ± 8.25%
same,EC50,hCT(a) receptor; SEM,1550 nM
same,agonist character,"hCT(a) receptor; hCT(a), cAMP production",partial agonist
same,Fold-change,hCT(a) receptor; potency of b-amylin relative to h-amylin at hCT(a),> −400
same,Emax,hAMY1(a) receptor; COS-7,83.1 ± 10.6%
same,EC50,hAMY1(a) receptor; SEM,912 nM
same,agonist character,"hAMY1(a) receptor; hAMY1(a), cAMP production",full agonist
same,Fold-change,hAMY1(a) receptor; potency of b-amylin relative to h-amylin at hAMY1(a),> −5000
same,Emax,hAMY2(a) receptor; COS-7,73.9 ± 4.27%
same,EC50,hAMY2(a) receptor; SEM,1170 nM
same,Fold-change,hAMY2(a) receptor; potency of b-amylin relative to h-amylin at hAMY2(a),> −600
same,Emax,hAMY3(a) receptor; COS-7,62.4 ± 9.31%
same,EC50,hAMY3(a) receptor; SEM,1350 nM
same,Fold-change,hAMY3(a) receptor; potency of b-amylin relative to h-amylin at hAMY3(a),> −2000
same,fold less potent than h-amylin,[1],at least 300 fold
same,amyloid fibrils by TEM,[2],no amyloid fibrils were detected
same,increase in thioflavin-T fluorescence signal,[2]; 7 days of incubation,no significant increase in thioflavin-T fluorescence signal was observed
same,amyloid formation in presence of LUV's,[3],no amyloid formation was detected
same,toxicity (in words),rat INS-1/832-13 β-cells; 24 h incubation,did not exhibit any toxicity
same,toxicity (in words),rat INS-1/832-13 β-cells; 84 h incubation,not toxic
same,increase in thioflavin-T fluorescence signal,"[4]; 16 μM peptide, 32 μM thioflavin-T, pH 7.4, 25°C, 20 mM Tris, 6 days of incubation",no increase in thioflavin-T fluorescence signal was observed
same,amyloid formation at a range of peptide concentrations,"[4]; 20 mM Tris pH 7.4, highest concentration examined 64 μM",no amyloid was detected
